Laboratory results: patent publication US6599525B2, “Dressings and bandages comprising same” (Johnson & Johnson Consumer Companies, Inc., priority 1998, dated 2003)

Legend:
Experiment in all cases: Microbiocidal activity of bandage samples on inoculated agar
Assay type in all cases: cell-based
Conditions in all cases: benzalkonium chloride in the dressing and bandage of the invention
Escherichia coli = system: Escherichia coli
Excerpt: (§1) The purpose of this test was to determine whether the efficacy of the benzalkonium chloride contained within the absorbent substrate of a bandage of the invention would be adversely affected when a portion of the skin-facing surface of the absorbent substrate contained a discontinuous coating of an ointment-like composition. The specimens tested were the bandages of Example 4 comprising the dressing of Example 2. Test samples 2.5 cm×2 cm were cut from the bandages so as to remove the longitudinally extending adhesive strip portions that extended beyond the boundary of the dressing portion of the bandage.
(§2) The microbiocidal activity of the benzalkonium chloride in the dressing was tested by placing samples of the dressing on a peptone-casein-soya agar growth medium contained in petri dishes having an area of 64 square centimeters that had been inoculated with certain microorganisms. The test samples were placed in the dishes so that the skin facing side of the dressing contacted the agar medium. The following microorganisms were used:
(§3) The bactericidal suspensions for seeding of the prepared petri dishes were taken from cultures in their exponential growth phase. The concentration of each suspension was determined according to an AENOR (Association Francaise Normalisation) standard method using spectrophotometry at 620 nm. Suspensions of the desired concentration were then prepared by successive dilution to give seeding stock solutions.
(§4) A standard volume of the seeding stock solution was placed in the center of each prepared petri dish and spread with the help of a spreader. The inoculated plates were dried off in a drying oven at 37° C. for 30 minutes. The dressings were placed on top of the medium in the manner described above, and the petri dishes were then incubated for a total of 24 to 48 hours at 37° C. Dishes were removed from the incubator periodically and the extent of bacterial growth underneath the dressing was measured.

Mycobacterium smegmatis = system: Mycobacterium smegmatis
Excerpt: as §1, §2, §3, §4

Staphylococcus aureus = system: Staphylococcus aureus
Excerpt: as §1, §2, §3, §4

Streptococcus foecalis = system: Streptococcus foecalis
Excerpt: as §1, §2, §3, §4

Measured: bactericidal activity (summary in words)

benzalkonium chloride
significant bactericidal activity: Escherichia coli | Mycobacterium smegmatis | Staphylococcus aureus | Streptococcus foecalis
